{"source": "paper PMC6154344", "about": "“Hibiscus sabdariffa L. and Its Bioactive Constituents Exhibit Antiviral Activity against HSV-2 and Anti-Enzymatic Properties against Urease by an ESI-MS Based Assay” (Molecules : A Journal of Synthetic Chemistry and Natural …, 2017)", "biological_target": "Urease (Type III, from Canavalia ensiformis) (Canavalia ensiformis, UniProt P07374)", "sequence (P07374 whole entry)": "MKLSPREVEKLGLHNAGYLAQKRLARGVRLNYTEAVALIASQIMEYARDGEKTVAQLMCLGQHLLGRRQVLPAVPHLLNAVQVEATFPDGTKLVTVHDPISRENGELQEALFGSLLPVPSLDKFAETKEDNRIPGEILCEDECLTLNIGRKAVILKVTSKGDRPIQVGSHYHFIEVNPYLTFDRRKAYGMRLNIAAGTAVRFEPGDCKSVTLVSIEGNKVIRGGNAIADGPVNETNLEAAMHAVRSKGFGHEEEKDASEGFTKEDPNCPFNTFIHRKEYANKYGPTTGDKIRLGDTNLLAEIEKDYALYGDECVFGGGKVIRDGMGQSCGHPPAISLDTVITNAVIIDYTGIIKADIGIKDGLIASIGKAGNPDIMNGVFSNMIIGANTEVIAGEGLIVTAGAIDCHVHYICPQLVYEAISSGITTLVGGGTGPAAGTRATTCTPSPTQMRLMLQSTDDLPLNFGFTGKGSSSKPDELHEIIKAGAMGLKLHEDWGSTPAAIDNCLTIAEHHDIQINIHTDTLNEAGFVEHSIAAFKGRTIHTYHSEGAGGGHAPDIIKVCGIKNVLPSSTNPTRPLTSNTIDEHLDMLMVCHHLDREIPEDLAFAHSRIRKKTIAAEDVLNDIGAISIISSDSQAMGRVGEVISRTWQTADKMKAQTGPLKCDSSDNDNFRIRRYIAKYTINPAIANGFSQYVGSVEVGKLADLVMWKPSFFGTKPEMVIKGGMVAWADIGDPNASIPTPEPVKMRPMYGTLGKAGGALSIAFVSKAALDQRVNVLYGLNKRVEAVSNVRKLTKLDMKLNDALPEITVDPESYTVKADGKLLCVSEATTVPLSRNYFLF", "test": "ESI-MS (MRM) assay of urea depletion by purified urease, […] min pre-incubation with inhibitor", "assay_type": "biochemical", "data": [{"smiles": "CC(=O)NO", "note": "[AHA, acetohydroxamic acid]", "values": [{"measurement": "IC50", "value": 4.3, "unit": "µM"}]}]}
